Values quoted from earlier work, collected in paper PMC2887613 (ChemMedChem, 2009).
Where two headings read alike, the source gives them in different places.

What was measured:
rat M4 [1] = molecular target: T1, rat M4 (Rattus norvegicus, UniProt P08485); settings: rat M4/Gqi5-expressing cells, first generation compounds
T1 sequence (P08485 1-478): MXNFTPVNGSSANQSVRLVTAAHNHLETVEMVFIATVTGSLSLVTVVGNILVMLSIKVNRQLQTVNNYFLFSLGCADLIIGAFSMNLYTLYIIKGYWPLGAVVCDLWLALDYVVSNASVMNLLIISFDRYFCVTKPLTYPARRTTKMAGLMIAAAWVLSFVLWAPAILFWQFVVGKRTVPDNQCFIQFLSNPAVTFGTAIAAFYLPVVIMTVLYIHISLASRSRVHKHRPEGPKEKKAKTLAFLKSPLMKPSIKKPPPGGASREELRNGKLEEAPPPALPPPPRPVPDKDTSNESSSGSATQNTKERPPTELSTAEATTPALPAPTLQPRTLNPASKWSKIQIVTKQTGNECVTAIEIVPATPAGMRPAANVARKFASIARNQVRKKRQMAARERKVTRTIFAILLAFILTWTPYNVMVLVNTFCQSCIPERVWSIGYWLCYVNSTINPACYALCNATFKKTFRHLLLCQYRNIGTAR

rat M4 [2] = molecular target: T1, rat M4
[3] = lead compound
[4] = rat, microsomes, 1.5 h
[5] = human, microsomes, 1.5 h

## Cc1cc(C)c2c(N)c(C(=O)NCc3ccc(Cl)cc3)sc2n1 [Compd 1]
Rat M4 [1]
  EC50: 400 nM
Rat M4 [2]; Ca2+ mobilization assay in rat M4/Gqi5-expressing cells
  leftward shift of an ACh CRC: 47 fold
Rat M4 [2]; first generation compounds, previously reported
  ACh CRC fold-shift: 47 x
[3]
  solubility: solubility issues
other
  brain penetration: lack of brain penetration

## COc1ccc(CNC(=O)c2sc3nc(C)cc(C)c3c2N)cc1 [Compd 3]
[4]
  parent remaining: < 10%
[5]
  parent remaining: < 10%
In vivo
  brain penetration: centrally penetrating
